Like-named read-outs stand apart in the source and are kept apart here.
Legend:
[1] = system: colon cancer cell line HCT116; assay: SRB cell viability assay, colon cancer cell line HCT116; type: cell-based
Method: (§1) Regarding a lung cancer cell line A549 (Korean Cell line Bank), a colon cancer cell line HCT116 (ATCC), a stomach cancer cell line SNU638 (Korean Cell Line Bank), a liver cancer cell line SK-HEP-1 (Korean Cell line Bank), and a breast cancer cell line MDA-MB-231 (Korean Cell line Bank), a sulforhodamine B (SRB) assay which is a method of measuring cell viability was used for measuring apoptosis effects of Asperphenin.
(§2) In detail, 190 μl of a cell suspension at a concentration of 3.5×10^4 cells/ml was inoculated in each well of a 96-well microplate. 0.8 μM, 4 μM, 20 μM, or 100 μM of Asperphenin was added to the cell culture medium, and cultured at a temperature of 37° C. for 72 hours under the condition of 5% CO2. After incubation, 50 μl of 50% (v/v) trichloroacetic acid solution (Sigma Aldrich) was added to each well, and then, incubated at a temperature of 4° C. for 30 minutes, to thereby fix the cells thereto. The fixed cells were washed with water five times, and then, dried in the air.
(§3) Next, 80 μl of a 0.4% (w/v) SRB aqueous solution (Sigma Aldrich) containing 1% (v/v) acetic acid (DUKSAN) was added to each well, incubated at room temperature for 1 hour to stain cells therein, and the stained cells washed with water and dried. The cells were dissolved by adding 200 μl of 10 mM Tris (pH 10.0) (Sigma Aldrich) to each well, and then, the number of living cells was calculated by measuring the absorbance thereof at 515 nm. The concentration of the compound inhibiting cell growth to 50% based on the number of the living cells, i.e., 50% inhibition concentration (IC50) was calculated, and the results are shown in Table 3. Here, as a positive control, etoposide (Sigma Aldrich) was used.
From the colon cancer cell lines HCT116 (ATCC), HCT15 (Korean Cell Line Bank), LS174T (Korean Cell Line Bank), RKO(ATCC), and SW480(ATCC), cell growth inhibition concentrations (IC50, μM) were calculated as described in Example 2-1, and the results are shown in Table 4. Here, as a positive control, paclitaxel (Sigma Aldrich) was used.

[2] = system: colon cancer cell line LS174T; assay: SRB cell viability assay, colon cancer cell line LS174T; type: cell-based; settings: Homo sapiens, read-out: Growth inhibition value of cancer cell (IC50)
Method: as §2
(§4) Next, 80 μl of a 0.4% (w/v) SRB aqueous solution (Sigma Aldrich) containing 1% (v/v) acetic acid (DUKSAN) was added to each well, incubated at room temperature for 1 hour to stain cells therein, and the stained cells washed with water and dried. The cells were dissolved by adding 200 μl of 10 mM Tris (pH 10.0) (Sigma Aldrich) to each well, and then, the number of living cells was calculated by measuring the absorbance thereof at 515 nm. […]
(§5) From the colon cancer cell lines HCT116 (ATCC), HCT15 (Korean Cell Line Bank), LS174T (Korean Cell Line Bank), RKO(ATCC), and SW480(ATCC), cell growth inhibition concentrations (IC50, μM) were calculated as described in Example 2-1, and the results are shown in Table 4. […]

[3] = system: colon cancer cell line HCT15; assay: SRB cell viability assay, colon cancer cell line HCT15; type: cell-based; settings: Homo sapiens, HCT-15, read-out: Growth inhibition value of cancer cell (IC50)
Method: as §2, §4, §5

[4] = system: colon cancer cell line RKO; assay: SRB cell viability assay, colon cancer cell line RKO; type: cell-based; settings: Homo sapiens, read-out: Growth inhibition value of cancer cell (IC50)
Method: as §2, §4, §5

[5] = system: colon cancer cell line SW480; assay: SRB cell viability assay, colon cancer cell line SW480; type: cell-based; settings: Homo sapiens, read-out: Growth inhibition value of cancer cell (IC50)
Method: as §2, §4, §5

[6] = system: liver cancer cell line SK-HEP-1; assay: SRB cell viability assay, liver cancer cell line SK-HEP-1; type: cell-based; settings: SK-HEP-1, 72 hours, read-out: Cell growth inhibition concentration (IC50)
Method: as §1, §2, §3

[7] = system: lung cancer cell line A549; assay: SRB cell viability assay, lung cancer cell line A549; type: cell-based; settings: A549, 72 hours, read-out: Cell growth inhibition concentration (IC50)
Method: as §1, §2, §3

[8] = system: stomach cancer cell line SNU638; assay: SRB cell viability assay, stomach cancer cell line SNU638; type: cell-based; settings: SNU638, 72 hours, read-out: Cell growth inhibition concentration (IC50)
Method: as §1, §2, §3

[9] = system: breast cancer cell line MDA-MB-231; assay: SRB cell viability assay, breast cancer cell line MDA-MB-231; type: cell-based; settings: MDA-MB-231, 72 hours, read-out: Cell growth inhibition concentration (IC50)
Method: as §1, §2, §3

[10] = Physicochemical characterization
RKO cells = assay: Combination of Asperphenin B with other anticancer drugs, SRB cell viability; type: cell-based, human; settings: 48 hours; for Effects of cell growth inhibition in combination with Asperphenin B compared to the anticancer drug alone: FIGS. 7A to 7C; for Effect of administration in combination: <1 synergistic, =1 additive, >1 antagonistic
Method: RKO cells diluted in a medium containing 10% (v/v) FBS were inoculated in each well of a 96-well microplate so that each plate included 7×10^3 cells, and then, the cells were cultured for about 24 hours at a temperature of 37° C. under the condition of 5% CO2. In the medium containing 10% (v/v) FBS, irinotecan (Sigma Aldrich), 5-fluorouracil (Sigma Aldrich), or gemsitabin (Sigma Aldrich) was mixed with […] at a ratio of 1:1, and then, the mixture was added to the cultured cells. Then, the cells were cultured for 48 hours at a temperature of 37° C. under the conditions of 5% CO2. […] In addition, the effects of the administration in combination were measured according to Equation 1, and results thereof are shown in Table 8. Effects of administration in combination=D1/(Dx)1+D2/(Dx)2 [Equation 1] D1: Concentration of […] with expected effect in administration in combination D2: Concentration of other anticancer drugs with expected effect in administration in combination (Dx)1: Concentration of […] with expected effect in administration of […] only (Dx)2: Concentration of other anticancer drugs with expected effect in administration of other anticancer drugs only […]

With `CC(=O)O[C@H]1C(=O)[C@@]2(C)[C@H]([C@H](OC(=O)c3ccccc3)[C@]3(O)C[C@H](OC(=O)[C@H](O)[C@@H](NC(=O)c4ccccc4)c4ccccc4)C(C)=C1C3(C)C)[C@]1(OC(C)=O)CO[C@@H]1C[C@@H]2O` [Paclitaxel, paclitaxel, reference compound] as the compound, how does the IC50 ([1]; Homo sapiens, HCT-116, HCT116, Table 4, read-out: Growth inhibition value of cancer cell (IC50)) read?
Its IC50 is 0.42 nM.

What about the IC50 [2] of the same compound?
Its IC50 is 0.46 nM.

What about the IC50 [3] of the same compound?
The IC50 was over 100 nM.

And the IC50 [4]?
Its IC50 is 0.21 nM.

And the IC50 [5]?
Its IC50 is over 100 nM.

Which results are given for `COc1cc([C@@H]2c3cc4c(cc3[C@@H](O[C@@H]3O[C@@H]5CO[C@@H](C)O[C@H]5[C@H](O)[C@H]3O)[C@H]3COC(=O)[C@H]23)OCO4)cc(OC)c1O` [Etoposide, etoposide, reference compound]?
IC50 ([1]; Homo sapiens, HCT-116, HCT116, 72 hours, Table 3, read-out: Cell growth inhibition concentration (IC50)): 1900 nM; IC50 ([6]; Homo sapiens, SK-HEP1): 600 nM; IC50 ([7]; Homo sapiens): 700 nM; IC50 ([8]; Homo sapiens, SNU-638): 800 nM; IC50 ([9]; Homo sapiens): 10600 nM

With `CCCCCCCCC[C@@H](O)CC(=O)N[C@@H](CC(N)=O)C(=O)N[C@@H](CCC(N)=O)C(=O)N[C@@H](CC(=O)c1cc(C)cc(O)c1C(=O)c1c(O)cccc1O)CC(C)C` [Asperphenin A] as the compound, how does the IC50 ([1]; HCT116, 72 hours, Table 3, read-out: Cell growth inhibition concentration (IC50)) read?
The IC50 was 1700 nM.

What about the IC50 [6] of the same compound?
The IC50 was 2300 nM.

What about the IC50 [7] of the same compound?
The IC50 was 14600 nM.

What about the IC50 [8] of the same compound?
The IC50 was 5800 nM.

And the “Solubility in organic solvent” value ([10]; methanol and acetone)?
Its value is “well dissolved in a moderate organic solvent, such as methanol and acetone”.

And the Stability ([10]; room temperature)?
Its Stability is “stable at room temperature”.

And the IC50 [9]?
The IC50 was 3100 nM.

Which “Effects of cell growth inhibition in combination with Asperphenin B compared to the anticancer drug alone” value (RKO cells) does the source give for `CCc1c2c(nc3ccc(OC(=O)N4CCC(N5CCCCC5)CC4)cc13)-c1cc3c(c(=O)n1C2)COC(=O)[C@]3(O)CC` [Irinotecan, irinotecan] here?
The value was “increased”.

And the “Effect of administration in combination” value (RKO cells; irinotecan 1.25 μM + Asperphenin B 2.5 μM)?
The value was 0.792.

What about the “Effect of administration in combination” value (RKO cells; irinotecan 2.5 μM + Asperphenin B 2.5 μM) of the same compound?
Its value is 0.751.

What about the “Effect of administration in combination” value (RKO cells; irinotecan 5 μM + Asperphenin B 2.5 μM) of the same compound?
Its value is 0.691.

And the “Effect of administration in combination” value (RKO cells; irinotecan 10 μM + Asperphenin B 2.5 μM)?
Its value is 0.650.

With `Nc1ccn([C@@H]2O[C@H](CO)[C@@H](O)C2(F)F)c(=O)n1` [Gemsitabin, gemsitabin] as the compound, how does the “Effects of cell growth inhibition in combination with Asperphenin B compared to the anticancer drug alone” value (RKO cells) read?
Its value is “increased”.

And the “Effect of administration in combination” value (RKO cells; gemsitabin 0.32 μM + Asperphenin B 8 μM)?
The value was 0.907.

And the “Effect of administration in combination” value (RKO cells; gemsitabin 1.6 μM + Asperphenin B 8 μM)?
The value was 0.882.

And the “Effect of administration in combination” value (RKO cells; gemsitabin 8 μM + Asperphenin B 8 μM)?
The value was 0.801.

What about the “Effect of administration in combination” value (RKO cells; gemsitabin 40 μM + Asperphenin B 8 μM) of the same compound?
The value was 0.714.

Which results are given for `O=c1[nH]cc(F)c(=O)[nH]1` [5-fluorouracil]?
Effect of administration in combination (RKO cells; 5-fluorouracil 0.08 μM + Asperphenin B 8 μM): 0.863; Effect of administration in combination (RKO cells; 5-fluorouracil 0.4 μM + Asperphenin B 8 μM): 0.852; Effect of administration in combination (RKO cells; 5-fluorouracil 2 μM + Asperphenin B 8 μM): 0.786; Effect of administration in combination (RKO cells; 5-fluorouracil 10 μM + Asperphenin B 8 μM): 0.765; Effects of cell growth inhibition in combination with Asperphenin B compared to the anticancer drug alone (RKO cells): increased

From patent US10759831B2, “Peptide compound, production method therefor, and use thereof” (iNtRON Biotechnology, Inc., priority 2014, dated 2020)
